Consider two molecules from US20230181539A1, “METHODS FOR THE TREATMENT OF CORONAVIRUS INFECTIONS” (INSERM (INSTITUT NATIONAL DE LA SANTÉ ET DE LA RECHERCHE …, priority 2020, published 2023).

For this experiment, the system named is SARS-CoV-2 strain BavPat1. Briefly: Determination of EC50 and EC90: inhibition of SARS-CoV-2 viral RNA replication in Vero E6 cells (RT-qPCR). It counts as cell-based. Particulars: Severe acute respiratory syndrome coronavirus 2, Vero C1008, 48 h, read-out: EC50 (compound concentration required to inhibit viral RNA replication by 50%).

Each structure is given as a SMILES string. Read-outs that look alike come from different tables or passages of the source.

With `CCn1c(CO)nn(-c2cc(O[C@@H](C)C(F)(F)F)c(C(=O)Nc3c(F)cccc3Cl)cc2F)c1=O` [BAY-2402234, N-(2-Chloro-6-fluorophenyl)-4-[4-ethyl-3-(hydroxymethyl)-5-oxo-1,2,4-triazol-1-yl]-5-fluoro-2-[(2S)-1,1,1-trifluoropropan-2-yl]oxybenzamide], under “Vero E6 cells, MOI 0.002, 2 days of culture, viral RNA in supernatant”, the EC50 was below 40 nM.

With `CCC(CC)COC(=O)[C@H](C)N[P@](=O)(OC[C@H]1O[C@@](C#N)(c2ccc3c(N)ncnn23)[C@H](O)[C@@H]1O)Oc1ccccc1` [remdesivir, Remdesivir], the EC50 stood at 2700 nM.
